Where two headings read alike, the source gives them in different places.
Assays:
[1] = tested on: meal-fed Charles River rats; assay: Food consumption and serum parameters in meal-fed rats (in vivo fatty acid synthesis experiments); parameters: species or system Charles River rat; details: 60 mg/kg i.p., sodium salt, mean ± SE
Description: (§1) In the following examples, female rats (Charles River CD strain, 180-200 g) were housed individually in wire bottom cages in a temperature (22°) and light (12 hr light and 12 hr dark) regulated room. They had free access to Purina Rodent Chow and water.
Faster enzymatic procedure for serum triglycerides, Clinical Chemistry, 21: 1983-1985], cholesterol, [C. C. Allain, L. Poon, S. G. Chan, W. Richmond and P. Fu (1974). Enzymatic determination of total serum cholesterol, Clinical Chemistry, 20: 470-475] and glucose, [R. Konig, H. Dauwalder and R. Richterich (1971). Vergleichende Bestimmunogen der Uringlucosekonzentration mit der Polarimetrie und einer enzymatischen Methode (Hexokinase/Glucose-6-Phosphat-Dehydrogenase), Schweiz. Med. Wschr., 101: 860-866] by enzymatic procedures.

[2] = tested on: hepatic fatty acid synthesis; assay: In vivo hepatic fatty acid synthesis in meal-fed rats; parameters: species or system Charles River rat; details: 60 mg/kg i.p., sodium salt, mean ± SE
Description: as §1

[3] = biological target: T1, human pancreatic lipase (Homo sapiens, UniProt P16233); assay: In vitro titrimetric (Radiometer pH-stat) pancreatic lipase assay, Dixon plots; assay type: biochemical; details: in vitro Radiometer assay, read-out: Inhibition constants for bromolasalocid inhibition of human pancreatic lipase
T1 construct: Human pancreatic juice was obtained from a patient with acute pancreatitis; from tissue; host or cells: human pancreatic juice from the cannulated duct of a patient with acute pancreatitis; gift of Dr. George Nardi, Massachusetts General Hospital
T1 sequence (P16233 17-465): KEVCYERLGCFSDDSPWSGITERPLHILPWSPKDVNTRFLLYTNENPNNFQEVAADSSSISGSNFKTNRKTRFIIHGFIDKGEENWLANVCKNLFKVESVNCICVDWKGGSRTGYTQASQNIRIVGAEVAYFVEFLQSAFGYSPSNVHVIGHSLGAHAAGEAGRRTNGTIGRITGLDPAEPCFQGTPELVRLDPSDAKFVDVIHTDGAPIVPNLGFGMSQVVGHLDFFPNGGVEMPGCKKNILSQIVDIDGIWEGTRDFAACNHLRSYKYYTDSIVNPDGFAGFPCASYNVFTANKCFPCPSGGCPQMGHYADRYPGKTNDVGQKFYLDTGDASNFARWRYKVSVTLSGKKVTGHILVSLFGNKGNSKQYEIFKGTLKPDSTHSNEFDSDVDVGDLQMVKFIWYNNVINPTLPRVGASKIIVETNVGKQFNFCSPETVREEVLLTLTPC

[4] = tested on: fatty acid synthesis in isolated hepatocytes; assay: In vitro fatty acid synthesis in isolated hepatocytes; assay type: cell-based, Charles River female rat; details: Rattus norvegicus, Hepatocyte, 1 h, pH 7.4; for activity at 500 µM: 0.5 mM; for activity at 1000 µM: 1.0 mM
Description: Hepatocytes were prepared from meal-fed Charles River female rats as described previously, [A. C. Sullivan, J. Triscari, J. G. Hamilton and J. A. Ontko (1977). Hypolipidemic activity of (-)-hydroxycitrate, Lipids, 12: 1-9]. Briefly, rats were anesthetized with Nembutal, livers were perfused in situ and hepatocytes were isolated in Krebs-Henseleit bicarbonate buffer, pH 7.4. Incubations with isolated hepatocytes were performed in triplicate at 37° C. Each incubation flask contained in a total volume of 2.1 ml, 10.5 mg cells (dry weight), 1 ml of Krebs-Henseleit buffer, pH 7.4, radioactive substrate (1 μCi [U-^14 C]alanine, 1 mCi^3 H2 O and 1 μmole alanine) and 0.3% glucose. The appropriate concentration of inhibitor was prepared in dimethylsulfoxide and added to the incubation flask. Dimethylsulfoxide had no effect on fatty acid synthesis. ^3 H2 O was used to determine the total rate of fatty acid synthesis independently of carbon precursors of acetyl CoA. [^14 C]alanine was used as an acetyl CoA precursor. Rates of fatty acid synthesis were determined as described previously, [A. C. Sullivan, J. Triscari, J. G. Hamilton and J. A. Ontko (1977). Hypolipidemic activity of (-)-hydroxycitrate, Lipids, 12: 1-9]. Data are expressed as nmoles ^3 H2 O or [^14 C]alanine converted into fatty acids per mg dry weight cells in 60 minutes.

[5] = biological target: T2, pancreatic lipase (Rattus norvegicus, UniProt P27657); assay: In vitro pancreatic lipase screen ([14C]-triolein assay); assay type: biochemical; details: read-out: Pancreatic Lipase Activity I50
T2 construct: stimulated to release pancreatic proteins by addition of 10^-5 M carbachol; from tissue; host or cells: pancreatic lobules of fasted Charles River female rats; released pancreatic juice, centrifuged
T2 sequence (P27657 17-465): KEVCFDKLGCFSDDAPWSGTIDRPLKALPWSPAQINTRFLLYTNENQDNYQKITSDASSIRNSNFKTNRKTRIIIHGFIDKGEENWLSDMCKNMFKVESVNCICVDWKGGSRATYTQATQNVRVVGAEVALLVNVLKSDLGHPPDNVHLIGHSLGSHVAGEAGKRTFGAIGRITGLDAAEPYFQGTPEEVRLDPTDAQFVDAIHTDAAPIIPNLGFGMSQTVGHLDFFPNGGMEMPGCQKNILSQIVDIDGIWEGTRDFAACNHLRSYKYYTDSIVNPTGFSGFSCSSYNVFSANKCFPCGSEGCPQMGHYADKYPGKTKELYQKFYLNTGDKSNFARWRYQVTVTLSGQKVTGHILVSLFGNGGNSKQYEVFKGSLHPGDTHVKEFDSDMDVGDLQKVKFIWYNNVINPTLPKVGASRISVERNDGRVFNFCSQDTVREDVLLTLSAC
Description: The method for assaying pacreatic lipase in vitro using [^14 C]-triolein was based on the method of Garfinkel and Schotz for lipoprotein lipase, [A. S. Garfinkel and M. C. Schotz (1972). […] Glycerol tri[1-^14 C]oleate (32 mM) was emulsified in 0.2 M Tris-HCl pH 8 containing 0.15 M NaCl, bovine serum albumin (15 mg/ml) and sodium taurocholate (1.4 mM) by sonication for three, one min intervals at 80 watts. Final assay volume was 1.0 ml. The reaction was initiated by the addition of enzyme and was allowed to proceed for 10 min. The reaction was linear for up to 20 min. The liberated free fatty acids were extracted into 0.1 M KOH and quantitated in a liquid scintillation counter using 2,5-bis-2-(5-tertbutylbenzoxazolyl)-tniophene (BBOT) scintillation fluid (Yorktown Research, South Hackensack, N.J.).
Ionophores were added to the above assay as solutions in either 90% ethanol or water, pH 8; 90% ethanol had no effect on the enzyme activity assayed by either method.

[6] = tested on: intestinal absorption of triglycerides (corn oil); assay: In vivo absorption of triglycerides (corn oil absorption)
[7] = read-out: Fatty Acid Synthesis 3H2O
[8] = read-out: Fatty Acid Synthesis [14C]alanine
[9] = Experiment 1, di-(N-methylglucamine), 325 mg/kg p.o.
[10] = Experiment 1, ethanolate, 145 mg/kg p.o.
[11] = Experiment 1, sodium, 140 mg/kg p.o.

Compound: Monensin
- Food Consumption [1]: 16.1 ± 1.4 g
- Fatty Acid Synthesis 3H2O converted [2]: 14.8 ± 4.0 μmoles per 1 g liver in 30 min
- Fatty Acid Synthesis [14C]alanine converted [2]: 209 ± 64 nmoles per 1 g liver in 30 min

Compound: CC[C@@H](C(=O)[C@@H](C)[C@@H](O)[C@H](C)CCc1c(Br)cc(C)c(O)c1C(=O)O)[C@H]1O[C@](CC)([C@H]2CC[C@](O)(CC)[C@H](C)O2)C[C@@H]1C [Bromolasalocid, Ethanolate]
- Ki [3]: 100 µM

Compound: CC[C@@H](C(=O)[C@@H](C)[C@@H](O)[C@H](C)CCc1c(Br)cc(C)c(O)c1C(=O)O)[C@H]1O[C@](CC)([C@H]2CC[C@](O)(CC)[C@H](C)O2)C[C@@H]1C [Bromolasalocid, Na^+]
- Ki [3]: 50 µM
- activity at 500 µM [4, 7]: 14%
- activity at 500 µM [4, 8]: 0%
- activity at 1000 µM [4, 7]: 22%
- activity at 1000 µM [4, 8]: 0%

Compound: CC[C@@H](C(=O)[C@@H](C)[C@@H](O)[C@H](C)CCc1c(Br)cc(C)c(O)c1C(=O)O)[C@H]1O[C@](CC)([C@H]2CC[C@](O)(CC)[C@H](C)O2)C[C@@H]1C [Bromolasalocid]
- IC50 [5]: 600 µM
- Area under curve (corn oil absorption) [6, 9]: 660
- Area under curve, % of control [6, 9]: 60 % of control
- Area under curve (corn oil absorption) [6, 10]: 704
- Area under curve, % of control [6, 10]: 64 % of control
- Area under curve (corn oil absorption) [6, 11]: 659
- Area under curve, % of control [6, 11]: 60 % of control

Compound: CC[C@@H](C(=O)[C@@H](C)[C@@H](O)[C@H](C)CCc1c(Br)cc(C)c(O)c1C(=O)O)[C@H]1O[C@](CC)([C@H]2CC[C@](O)(CC)[C@H](C)O2)C[C@@H]1C [Bromolasalocid, di-(N-methylglucamine)]
- Ki [3]: 160 µM

From US4218443A, “Polyether ionophores as antiobesity and hypotriglyceridemic agents” (Hoffmann-La Roche Inc., priority 1979, dated 1980)
